Experiments:
Assay in all cases: Cell growth inhibition assay (Cell Titer Glo)
Format in all cases: cell-based, human
184B5 = conditions: 184B5, HMEC, 72 h
Method: (§1) Cell culture: Breast cell lines were obtained from the ATCC and from collections developed in the laboratories of Drs. Steve Ethier and Adi Gazdar.
(§2) Cell growth inhibition assay and data analysis: Cells were plated at proper density in 96-well plates such that they would remain in log growth at the end of assay time. The cells were allowed to attach overnight before being exposed to CGC-11047 for 72 h. Drugs were dissolved in water as 100 mM stock. For the dose response study, a set of 9 doses from 5×10^−3 to 1.3×10^−8 M (final concentration) in 1:5 serial dilution were added in triplicate wells. The final DMSO concentration in the treated well was 0.3% or less. The cell growth was determined using Cell Titer Glo (CTG) assay (CellTiter-Glo Luminescent Cell Viability Assay, Promega, Madison, Wis.), with slight modification form manufacturer's protocol, at day 0 (time when drug was added) and at day 3 of drug exposure. Briefly, CTG reagent was diluted with PBS (1:1, volume: volume) and the culture media was removed from the 96-well plate prior to adding 50 μl per well of the diluted CTG reagent. Luminescence from the assay was recorded using BIO-TEK FLx800.
(§3) Data calculations were made according to the method described by the NCI/NIH DTP Human Tumor Cell Line Screen Process (http://dtp.nci.nih.gov/branches/btb/ivclsp.html) and as described previously (Monks, A et al., JNCI 83:757-766, 1991). The percent growth curve is calculated as [(T−T0)/(C−T0)]×100, where T0 is the cell count at day 0, C is the vehicle control (e.g. 0.3% DMSO without drug) cell count at day 3, and T is the cell count at the test concentration. The GI50 and TGI value are determined as the drug concentration that results in a 50% and 0% growth at 72 h drug exposure. LC50 is calculated as [(T−T0)/T0]×100=−50, when T<T0.

BT474 = conditions: BT474, Luminal, 72 h
Method: as §1, §2, §3

HCC1806 = conditions: HCC1806, Basal A, 72 h
Method: as §1, §2, §3

MCF12A = conditions: N, Basal B, 72 h
Method: as §1, §2, §3

MCF10A = conditions: N, Basal B, 72 h
Method: as §1, §2, §3

HCC70 = conditions: HCC70, Basal A, 72 h
Method: as §1, §2, §3

SUM149PT = conditions: Basal B, 72 h
Method: as §1, §2, §3

SUM159PT = conditions: Basal B, 72 h
Method: as §1, §2, §3

HCC1143 = conditions: HCC1143, Basal A, 72 h
Method: as §1, §2, §3

UACC812 = conditions: UACC812, Luminal, 72 h
Method: as §1, §2, §3

MCF10F = conditions: N, Basal A, 72 h
Method: as §1, §2, §3

MDAMB157 = conditions: MDAMB157, Basal B, 72 h
Method: as §1, §2, §3

S1 = conditions: S1, HMEC, 72 h
Method: as §1, §2, §3

MDAMB436 = conditions: MDAMB436, Basal B, 72 h
Method: as §1, §2, §3

SUM52PE = conditions: Luminal, 72 h
Method: as §1, §2, §3

600MPE = conditions: Luminal, 72 h
Method: as §1, §2, §3

HCC1954 = conditions: HCC1954, Basal A, 72 h
Method: as §1, §2, §3

MDAMB175VII = conditions: Luminal, 72 h
Method: as §1, §2, §3

HCC1419 = conditions: HCC1419, Luminal, 72 h
Method: as §1, §2, §3

ZR75B = conditions: Luminal, 72 h
Method: as §1, §2, §3

HCC1500 = conditions: HCC1500, Basal B, 72 h
Method: as §1, §2, §3

HCC1569 = conditions: HCC1569, Basal A, 72 h
Method: as §1, §2, §3

HCC1937 = conditions: HCC1937, Basal A, 72 h
Method: as §1, §2, §3

SUM229PE = conditions: Basal B, 72 h
Method: as §1, §2, §3

184A1 = conditions: 184A1, HMEC, 72 h
Method: as §1, §2, §3

## CCNCCCNC/C=C\CNCCCNCC [CGC-11047]
184B5
  TGI: 400 µM
184B5; Homo sapiens
  GI50: 300 µM
BT474
  TGI: 1000 µM
BT474; Homo sapiens, BT-474
  GI50: 400 µM
HCC1806
  TGI: 330 µM
HCC1806; Homo sapiens
  GI50: 0.6 µM
MCF12A; Homo sapiens, MCF-12A
  GI50: 100 µM
MCF12A
  TGI: >100 µM
MCF10A; Homo sapiens, MCF-10A
  GI50: 200 µM
MCF10A
  TGI: 3300 µM
HCC70
  TGI: 0.53 µM
HCC70; Homo sapiens
  GI50: 0.4 µM
SUM149PT
  TGI: 800 µM
SUM149PT; Homo sapiens
  GI50: 2 µM
SUM159PT
  TGI: 3000 µM
SUM159PT; Homo sapiens, SUM-159-PT
  GI50: 200 µM
HCC1143
  TGI: 320 µM
HCC1143; Homo sapiens
  GI50: 2 µM
UACC812; Homo sapiens, UACC-812
  GI50: 21 µM
UACC812
  TGI: 300 µM
MCF10F; Homo sapiens, MCF-10F
  GI50: 100 µM
MCF10F
  TGI: 1100 µM
MDAMB157; Homo sapiens, MDA-MB-157
  GI50: 200 µM
MDAMB157
  TGI: 1000 µM
S1; Homo sapiens
  GI50: 0.8 µM
S1
  TGI: 3000 µM
MDAMB436; Homo sapiens, MDA-MB-436
  GI50: 1000 µM
MDAMB436
  TGI: 3000 µM
SUM52PE; Homo sapiens
  GI50: 10 µM
SUM52PE
  TGI: 300 µM
600MPE; Homo sapiens
  GI50: 2 µM
600MPE
  TGI: 2000 µM
HCC1954
  TGI: 8 µM
HCC1954; Homo sapiens
  GI50: 1 µM
MDAMB175VII; Homo sapiens, MDA-MB-175-VII
  GI50: 1000 µM
MDAMB175VII
  TGI: 2000 µM
HCC1419
  TGI: 31 µM
HCC1419; Homo sapiens
  GI50: 7 µM
ZR75B; Homo sapiens, ZR-75B
  GI50: 200 µM
ZR75B
  TGI: 2000 µM
HCC1500
  TGI: 600 µM
HCC1500; Homo sapiens
  GI50: 20 µM
HCC1569
  TGI: 2000 µM
HCC1569; Homo sapiens
  GI50: 220 µM
HCC1937
  TGI: 300 µM
HCC1937; Homo sapiens
  GI50: 0.8 µM
SUM229PE
  TGI: 1100 µM
SUM229PE; Homo sapiens
  GI50: 90 µM
184A1
  TGI: 220 µM
184A1; Homo sapiens
  GI50: 2 µM

Source: patent US20110183336A1, “Method to Predict Responsiveness of Breast Cancer to Polyamine-Type Chemotherapy” (THE REGENTS OF THE UNIVERSITY OF CALIFORNIA, priority 2007, published 2011)
